From ChEMBL document CHEMBL1938315, “Tricyclic 3,4-dihydropyrimidine-2-thione derivatives as potent TRPA1 antagonists” (Bioorg Med Chem Lett, 2012)

How the values were obtained:
[1] = molecular target: T1, Transient receptor potential cation channel subfamily A member 1 (Rattus norvegicus, UniProt Q6RI86); assay: Antagonist activity at rat TRPA1 expressed in HEK293 cells assessed as inhibition of BITC-induced increase in intracellular calcium concentration by Fluo4-AM based fluorometric assay; format: functional, cell-based
[2] = molecular target: T2, Transient receptor potential cation channel subfamily A member 1 (Homo sapiens, UniProt O75762); assay: Antagonist activity at human TRPA1 expressed in HEK293 cells assessed as inhibition of 5H-dibenzo[b,e]azepine-10-carboxylic acid methyl ester-induced increase in intracellular calcium by Fluo4-AM based fluorometric assay; format: functional, cell-based
[3] = molecular target: T2, Transient receptor potential cation channel subfamily A member 1; assay: Antagonist activity at human TRPA1 expressed in HEK293 cells assessed as inhibition of N-methyl-maleimide-induced current by patch clamp assay
[4] = molecular target: T1, Transient receptor potential cation channel subfamily A member 1; assay: Antagonist activity at rat TRPA1 expressed in HEK293 cells assessed as inhibition of N-methyl-maleimide-induced current by patch clamp assay

T1 sequence (Q6RI86 whole entry): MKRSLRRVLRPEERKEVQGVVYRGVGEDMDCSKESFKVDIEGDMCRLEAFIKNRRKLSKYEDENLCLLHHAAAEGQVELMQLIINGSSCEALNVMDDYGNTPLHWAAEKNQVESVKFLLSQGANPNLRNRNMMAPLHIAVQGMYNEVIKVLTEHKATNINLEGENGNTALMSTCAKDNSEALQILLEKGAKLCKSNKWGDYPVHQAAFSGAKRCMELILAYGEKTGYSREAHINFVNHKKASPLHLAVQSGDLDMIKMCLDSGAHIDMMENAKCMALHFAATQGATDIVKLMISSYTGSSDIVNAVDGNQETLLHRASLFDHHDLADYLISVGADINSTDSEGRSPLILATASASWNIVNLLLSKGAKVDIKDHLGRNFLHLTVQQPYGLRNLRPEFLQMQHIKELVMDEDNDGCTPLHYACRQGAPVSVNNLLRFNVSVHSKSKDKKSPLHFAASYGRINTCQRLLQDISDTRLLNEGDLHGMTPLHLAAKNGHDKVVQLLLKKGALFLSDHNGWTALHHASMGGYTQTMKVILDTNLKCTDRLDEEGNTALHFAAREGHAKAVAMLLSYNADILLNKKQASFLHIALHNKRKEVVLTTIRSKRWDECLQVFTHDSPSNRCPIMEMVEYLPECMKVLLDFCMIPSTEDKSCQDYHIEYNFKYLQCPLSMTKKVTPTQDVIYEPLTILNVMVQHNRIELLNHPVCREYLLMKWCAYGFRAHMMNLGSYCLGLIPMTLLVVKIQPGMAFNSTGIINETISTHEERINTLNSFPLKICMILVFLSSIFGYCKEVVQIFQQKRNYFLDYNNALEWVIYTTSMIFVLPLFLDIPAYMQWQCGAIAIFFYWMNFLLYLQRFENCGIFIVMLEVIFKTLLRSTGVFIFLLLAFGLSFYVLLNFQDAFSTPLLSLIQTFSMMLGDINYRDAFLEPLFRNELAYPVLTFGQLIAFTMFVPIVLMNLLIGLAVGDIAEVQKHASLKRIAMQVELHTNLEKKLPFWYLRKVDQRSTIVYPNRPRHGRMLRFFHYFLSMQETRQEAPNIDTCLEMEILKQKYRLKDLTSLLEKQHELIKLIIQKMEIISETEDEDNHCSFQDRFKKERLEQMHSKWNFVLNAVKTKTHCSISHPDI
T2 sequence (O75762 whole entry): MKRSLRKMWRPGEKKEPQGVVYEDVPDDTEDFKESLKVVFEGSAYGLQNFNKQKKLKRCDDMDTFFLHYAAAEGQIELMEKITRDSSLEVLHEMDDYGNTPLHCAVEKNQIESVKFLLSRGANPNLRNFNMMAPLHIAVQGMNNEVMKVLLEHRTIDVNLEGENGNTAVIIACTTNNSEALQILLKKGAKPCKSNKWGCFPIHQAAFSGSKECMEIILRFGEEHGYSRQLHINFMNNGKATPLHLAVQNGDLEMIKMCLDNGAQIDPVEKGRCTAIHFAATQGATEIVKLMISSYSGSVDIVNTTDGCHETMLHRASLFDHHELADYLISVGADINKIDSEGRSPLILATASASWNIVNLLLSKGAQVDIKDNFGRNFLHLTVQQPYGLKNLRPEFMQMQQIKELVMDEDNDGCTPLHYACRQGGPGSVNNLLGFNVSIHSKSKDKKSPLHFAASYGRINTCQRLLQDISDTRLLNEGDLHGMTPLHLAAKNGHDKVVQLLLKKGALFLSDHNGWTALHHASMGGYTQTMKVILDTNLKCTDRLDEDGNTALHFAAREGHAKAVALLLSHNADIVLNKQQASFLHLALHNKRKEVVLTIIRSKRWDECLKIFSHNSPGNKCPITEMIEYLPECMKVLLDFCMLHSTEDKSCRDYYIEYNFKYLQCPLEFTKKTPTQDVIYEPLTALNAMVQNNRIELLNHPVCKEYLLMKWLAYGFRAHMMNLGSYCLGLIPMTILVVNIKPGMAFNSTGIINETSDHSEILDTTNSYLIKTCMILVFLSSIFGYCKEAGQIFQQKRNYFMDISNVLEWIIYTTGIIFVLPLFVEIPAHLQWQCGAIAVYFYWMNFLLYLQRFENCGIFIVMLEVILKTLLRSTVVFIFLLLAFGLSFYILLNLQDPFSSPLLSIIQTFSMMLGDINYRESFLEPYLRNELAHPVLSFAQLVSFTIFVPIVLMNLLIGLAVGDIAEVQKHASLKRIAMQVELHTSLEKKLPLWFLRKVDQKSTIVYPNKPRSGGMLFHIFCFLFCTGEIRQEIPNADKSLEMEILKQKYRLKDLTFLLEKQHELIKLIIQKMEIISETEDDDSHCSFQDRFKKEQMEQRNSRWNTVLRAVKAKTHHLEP

| IC50 [1] | IC50 [2] | EC50 [3] | EC50 [4] | SMILES |
| --- | --- | --- | --- | --- |
| > 10 µM |  |  |  | COCCCOc1cccc([C@@H]2NC(=S)NC3=C2C(=O)c2ccccc23)c1 |
|  | > 10 µM |  |  | S=C1NC2=C(CCC2)C(c2ccccc2)N1 (stereo unspecified) |
| > 10 µM | > 10 µM |  |  | O=C(O)c1cccc(C2NC(=S)NC3=C2C(=O)c2ccccc23)c1 (stereo unspecified) |
| 2.7 µM |  |  |  | COc1cccc(C2NC(=S)NC3=C2C(=O)c2ccccc23)c1OC (stereo unspecified) |
| 1.9 µM | 1.8 µM |  |  | O=C1C2=C(NC(=S)NC2c2ccccc2)c2ccccc21 (racemic) |
| 4.7 µM | 3.9 µM |  |  | COc1cccc(C2NC(=O)NC3=C2C(=O)c2ccccc23)c1 (racemic) |
|  | > 10 µM |  |  | S=C1NC2=C(CCCC2)C(c2ccccc2)N1 (stereo unspecified) |
|  | > 10 µM |  |  | O=C1CCCC2=C1C(c1ccccc1)NC(S)=N2 (stereo unspecified) |
|  | > 10 µM |  |  | S=C1NC2=C(CCc3ccccc32)C(c2ccccc2)N1 (stereo unspecified) |
| 0.23 µM | 0.64 µM |  |  | O=C1C2=C(NC(=S)NC2c2cccc(O)c2)c2ccccc21 (stereo unspecified) |
| 0.8 µM | 2.78 µM |  |  | COc1cc(OC)cc(C2NC(=S)NC3=C2C(=O)c2ccccc23)c1 (stereo unspecified) |
|  | > 10 µM |  |  | S=C(NCc1ccccc1)NCc1ccccc1 |
| > 10 µM |  |  |  | COc1ccc(OC)c(C2NC(=S)NC3=C2C(=O)c2ccccc23)c1 (stereo unspecified) |
| 0.003 µM | 0.085 µM |  |  | COc1cccc(C2NC(=S)N(C)C3=C2C(=O)c2ccccc23)c1 (racemic) |
| > 10 µM |  | 12 µM |  | COc1cccc([C@@H]2NC(=S)NC3=C2C(=O)c2ccccc23)c1 |
| 0.071 µM |  |  |  | O=C1C2=C(NC(=S)NC2c2cccc(Br)c2)c2ccccc21 (stereo unspecified) |
| 3.39 µM | 2.07 µM |  |  | O=C1C2=C(NC(=S)NC2c2ccccc2F)c2ccccc21 (stereo unspecified) |
| > 10 µM | > 10 µM |  |  | O=C1NC2=C(C(=O)c3ccccc32)C(c2ccccc2)N1 (stereo unspecified) |
| 0.02 µM | 0.13 µM |  |  | COc1cccc(C2NC(=S)NC3=C2C(=O)c2ccccc23)c1 (racemic) |
| 0.39 µM | 1.1 µM |  |  | O=C1C2=C(NC(=S)NC2c2cccc(F)c2)c2ccccc21 (stereo unspecified) |
| 0.004 µM | 0.013 µM |  |  | COCCCOc1cccc([C@H]2NC(=S)NC3=C2C(=O)c2ccccc23)c1 |

| IC50 [1] | IC50 [2] | EC50 [3] | EC50 [4] | SMILES |
| --- | --- | --- | --- | --- |
| 8.9 µM | > 10 µM |  |  | CN(C)CCOc1cccc(C2NC(=S)NC3=C2C(=O)c2ccccc23)c1 (stereo unspecified) |
| 0.98 µM |  |  |  | COc1cccc(C2C3=C(NC(=S)N2C)c2ccccc2C3=O)c1 (racemic) |
| 0.16 µM | 1.5 µM |  |  | COc1ccc(Oc2cccc(C3NC(=S)NC4=C3C(=O)c3ccccc34)c2)cc1 (stereo unspecified) |
| 9.4 µM | > 10 µM |  |  | COc1ccccc1C1NC(=S)NC2=C1C(=O)c1ccccc12 (stereo unspecified) |
| > 10 µM | 8.1 µM |  |  | O=C1C2=C(NC(=S)N[C@H]2c2ccccc2)c2ccccc21 |
| 3.5 µM | 3.1 µM |  |  | COc1ccc(C2NC(=S)NC3=C2C(=O)c2ccccc23)cc1 (stereo unspecified) |
| 0.012 µM | 0.075 µM | 0.01 µM | 0.22 µM | COc1cccc([C@H]2NC(=S)NC3=C2C(=O)c2ccccc23)c1 |
|  | > 10 µM |  |  | SC1=NC(c2ccccc2)=CC(c2ccccc2)N1 (stereo unspecified) |
| 0.011 µM | 0.05 µM |  |  | COCCCOc1cccc(C2NC(=S)NC3=C2C(=O)c2ccccc23)c1 (racemic) |
| 0.31 µM | 0.77 µM |  |  | O=C1C2=C(NC(=S)N[C@@H]2c2ccccc2)c2ccccc21 |
| 5.6 µM | > 10 µM |  |  | CC(C)c1ccc(NC(=O)Cn2cnc3c2c(=O)n(C)c(=O)n3C)cc1 |
| 0.047 µM | 0.21 µM |  |  | O=C1C2=C(NC(=S)NC2c2cccc(OCCO)c2)c2ccccc21 (stereo unspecified) |
| 0.044 µM | 0.71 µM |  |  | O=C1C2=C(NC(=S)NC2c2cccc(CO)c2)c2ccccc21 (stereo unspecified) |
|  | > 10 µM |  |  | CC1=C(C(=O)c2ccccc2)C(c2ccccc2)NC(=S)N1 (stereo unspecified) |
| > 10 µM | > 10 µM |  |  | CN(C)CCCOc1cccc(C2NC(=S)NC3=C2C(=O)c2ccccc23)c1 (stereo unspecified) |
| 9.5 µM | > 10 µM |  |  | CCOC(=O)C1=C(c2ccccc2)NC(=S)NC1c1cccc(OC)c1 (stereo unspecified) |
| 0.5 µM | 1.7 µM |  |  | COCCCOc1cccc(C2NC(=O)NC3=C2C(=O)c2ccccc23)c1 (racemic) |
|  | > 10 µM |  |  | SC1=NC2=C(CCC/C2=C\c2ccccc2)C(c2ccccc2)N1 (stereo unspecified) |
| 0.01 µM | 0.07 µM |  |  | O=C1C2=C(NC(=S)NC2c2cccc(OCCCCO)c2)c2ccccc21 (stereo unspecified) |
| 0.07 µM | 0.31 µM |  |  | CCCCOc1cccc(C2NC(=S)NC3=C2C(=O)c2ccccc23)c1 (stereo unspecified) |
